These results are taken from patent publication US12187723B2 (BRISTOL-MYERS SQUIBB COMPANY, priority 2019, dated 2025).

Assay [1] addresses T1, human TLR9 (Homo sapiens, UniProt Q9NR96).
T1 construct: host or cells: HEK-Blue cells
T1 sequence (Q9NR96 26-1032): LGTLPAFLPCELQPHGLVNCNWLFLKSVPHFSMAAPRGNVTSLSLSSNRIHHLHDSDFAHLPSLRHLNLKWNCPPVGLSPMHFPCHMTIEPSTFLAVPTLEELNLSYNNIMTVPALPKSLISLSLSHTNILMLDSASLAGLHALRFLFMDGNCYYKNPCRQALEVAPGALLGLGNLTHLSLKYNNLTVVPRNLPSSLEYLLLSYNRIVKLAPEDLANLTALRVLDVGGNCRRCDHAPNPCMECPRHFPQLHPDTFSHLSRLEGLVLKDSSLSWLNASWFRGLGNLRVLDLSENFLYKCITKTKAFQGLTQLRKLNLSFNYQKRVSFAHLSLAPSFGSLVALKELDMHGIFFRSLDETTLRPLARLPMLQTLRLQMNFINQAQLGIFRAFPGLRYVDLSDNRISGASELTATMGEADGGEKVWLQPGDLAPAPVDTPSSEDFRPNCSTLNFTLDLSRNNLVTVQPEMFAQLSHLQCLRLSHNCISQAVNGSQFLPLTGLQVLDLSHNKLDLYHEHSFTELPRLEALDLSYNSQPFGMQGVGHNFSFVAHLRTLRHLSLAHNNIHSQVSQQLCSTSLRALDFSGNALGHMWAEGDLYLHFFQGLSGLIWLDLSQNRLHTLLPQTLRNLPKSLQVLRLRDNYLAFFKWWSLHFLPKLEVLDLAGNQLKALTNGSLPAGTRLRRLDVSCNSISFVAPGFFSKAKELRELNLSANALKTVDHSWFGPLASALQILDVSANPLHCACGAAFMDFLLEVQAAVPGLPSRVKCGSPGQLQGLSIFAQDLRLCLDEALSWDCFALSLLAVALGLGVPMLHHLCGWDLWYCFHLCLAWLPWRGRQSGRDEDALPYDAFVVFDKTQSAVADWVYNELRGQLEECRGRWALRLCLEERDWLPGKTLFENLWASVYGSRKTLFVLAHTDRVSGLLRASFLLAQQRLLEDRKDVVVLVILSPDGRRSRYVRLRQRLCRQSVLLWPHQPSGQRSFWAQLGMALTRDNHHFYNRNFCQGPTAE
In words: TLR9 inhibition reporter assay (HEK-Blue SEAP). The format is cell-based. The conditions noted are these: HEK-Blue cells overexpressing human TLR9, ODN2006 5 nM, 22 hour incubation. A digest of the protocol:
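Compound treatment: 30 min, RT, 0.05 nM–50 μM final. Agonist: TLR7 gardiquimod 7.5 μM; TLR8 R848 15.9 μM; TLR9 ODN2006 5 nM. Incubation 22 h, 37 °C, 5% CO2. Readout SEAP, HEK-Blue Detection.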
For orientation: In a reporter assay the amount or activity of a reporter protein is the signal.

The target in assay [2] is T2, human TLR7 (Homo sapiens, UniProt Q9NYK1).
T2 construct: host or cells: HEK-Blue cells
T2 sequence (Q9NYK1 27-1049): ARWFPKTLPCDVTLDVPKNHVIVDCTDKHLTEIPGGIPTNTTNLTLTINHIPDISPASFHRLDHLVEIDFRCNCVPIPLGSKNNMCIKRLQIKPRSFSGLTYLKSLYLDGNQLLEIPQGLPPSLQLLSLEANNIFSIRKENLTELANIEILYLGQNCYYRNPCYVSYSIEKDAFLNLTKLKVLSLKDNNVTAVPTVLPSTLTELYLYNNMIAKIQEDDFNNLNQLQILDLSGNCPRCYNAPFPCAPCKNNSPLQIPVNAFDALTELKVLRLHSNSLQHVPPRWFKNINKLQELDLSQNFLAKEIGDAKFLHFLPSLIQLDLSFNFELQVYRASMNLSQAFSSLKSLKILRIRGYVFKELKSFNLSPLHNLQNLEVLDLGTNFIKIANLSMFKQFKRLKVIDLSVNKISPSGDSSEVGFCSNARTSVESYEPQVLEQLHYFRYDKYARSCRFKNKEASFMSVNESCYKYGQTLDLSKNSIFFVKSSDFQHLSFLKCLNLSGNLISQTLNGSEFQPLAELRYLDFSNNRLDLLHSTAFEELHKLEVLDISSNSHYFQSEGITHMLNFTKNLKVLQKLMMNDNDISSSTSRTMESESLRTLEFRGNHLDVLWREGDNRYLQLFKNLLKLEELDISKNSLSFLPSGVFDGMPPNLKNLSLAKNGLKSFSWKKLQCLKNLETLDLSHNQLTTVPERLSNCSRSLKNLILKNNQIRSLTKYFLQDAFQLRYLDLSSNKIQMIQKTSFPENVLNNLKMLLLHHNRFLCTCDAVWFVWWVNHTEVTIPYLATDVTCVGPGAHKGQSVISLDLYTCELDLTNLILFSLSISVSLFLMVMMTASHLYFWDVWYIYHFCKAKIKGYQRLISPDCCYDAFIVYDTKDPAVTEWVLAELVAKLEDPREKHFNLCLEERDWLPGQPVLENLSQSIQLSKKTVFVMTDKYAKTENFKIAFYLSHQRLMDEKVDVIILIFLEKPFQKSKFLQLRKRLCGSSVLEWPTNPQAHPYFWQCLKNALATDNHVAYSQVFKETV
In words: TLR7 inhibition reporter assay (HEK-Blue SEAP). The format is cell-based. The following applies: HEK-Blue cells overexpressing human TLR7, gardiquimod 7.5 μM, 22 hour incubation. An outline of the steps: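 22 h, 37° C, 5% CO2 incubation; compounds 0.05 nM-50 μM final; TLR7 cells 15000/well, TLR8 20,000/well. Readout: SEAP via HEK-Blue Detection medium. % inhibition = signal reduction versus agonist + DMSO wells, referenced to known inhibitor.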

By IC50 is commonly meant the midpoint of a concentration-inhibition curve. High values mean weaker potency, low ones greater potency. In the case of `COc1cc(-c2cc3[nH]c(=O)n([C@H]4CCCN(CC(N)=O)C4)c3cc2C(C)C)cn2ncnc12` [Example 220, (S)-2-(3-(6-isopropyl-5-(8-methoxy-[1,2,4]triazolo[1,5-a]pyridin-6-yl)-2-oxo-2,3-dihydro-1H-benzo[d]imidazol-1-yl)piperidin-1-yl)acetamide], the figures for the IC50 in assay [1] and in assay [2] were over 50 µM and 244 nM, respectively.

Regarding `CCc1cc2c(cc1-c1cc(OC)c3ncnn3c1)[nH]c(=O)n2[C@@H]1CCCN(CCC(F)(F)F)C1` [Example 183, (R)-6-ethyl-5-(8-methoxy-[1,2,4]triazolo[1,5-a]pyridin-6-yl)-1-(1-(3,3,3-trifluoropropyl)piperidin-3-yl)-1,3-dihydro-2H-benzo[d]imidazol-2-one], the IC50 in assay [1] amounted to 33.5 µM; in assay [2], 12.2 nM.

As for `COc1cc(-c2cc3[nH]c(=O)n(C4CCC(N5CCNC(=O)C5)CC4)c3cc2C(C)C)cn2ncnc12` (centres unmarked) [Example 243, 6-isopropyl-5-(8-methoxy-[1,2,4]triazolo[1,5-a]pyridin-6-yl)-1-(4-(3-oxopiperazin-1-yl)cyclohexyl)-1,3-dihydro-2H-benzo[d]imidazol-2-one], the IC50 in assay [1] was over 50 µM; in assay [2] it was 119 nM.

In the case of `CCc1cc2c(cc1-c1cc(OC)c3ncnn3c1)[nH]c(=O)n2[C@H]1CC[C@@H](N(CC)CC)CC1` [Example 169, 1-((1s,4s)-4-(diethylamino)cyclohexyl)-6-ethyl-5-(8-methoxy-[1,2,4]triazolo[1,5-a]pyridin-6-yl)-1,3-dihydro-2H-benzo[d]imidazol-2-one], the IC50 in assay [1] was found to be 18.3 µM; in assay [2], 1.84 nM.

Consider `Cc1cc2c(cc1-c1cc(C)c3ncnn3c1)[nH]c(=O)n2[C@H]1CCCN(C(C)C)C1` [Example 13, (S)-1-(1-isopropylpiperidin-3-yl)-6-methyl-5-(8-methyl-[1,2,4]triazolo[1,5-a]pyridin-6-yl)-1,3-dihydro-2H-benzo[d]imidazol-2-one], for which the IC50 in assay [1] worked out at 4.42 µM; in assay [2], 124 nM.

On to `CCN1CCC[C@H](n2c(=O)[nH]c3cc(-c4cc(C)c5ncnn5c4)c(C)cc32)C1` [Example 12, (S)-1-(1-ethylpiperidin-3-yl)-6-methyl-5-(8-methyl-[1,2,4]triazolo[1,5-a]pyridin-6-yl)-1,3-dihydro-2H-benzo[d]imidazol-2-one], for which the IC50 was 7.64 µM in assay [1] and 144 nM in assay [2].

Consider `CCCN1CCC[C@@H](n2c(=O)[nH]c3cc(-c4cc(OC)c5ncnn5c4)c(CC)cc32)C1` [Example 179, (R)-6-ethyl-5-(8-methoxy-[1,2,4]triazolo[1,5-a]pyridin-6-yl)-1-(1-propylpiperidin-3-yl)-1,3-dihydro-2H-benzo[d]imidazol-2-one], for which the IC50 in assay [1] worked out at 6.86 µM; in assay [2] it was 1.06 nM.

On to `CCc1cc2c(cc1-c1cc(OC)c3ncnn3c1)[nH]c(=O)n2[C@@H]1CCCN(C)C1` [Example 174, (R)-6-ethyl-5-(8-methoxy-[1,2,4]triazolo[1,5-a]pyridin-6-yl)-1-(1-methylpiperidin-3-yl)-1,3-dihydro-2H-benzo[d]imidazol-2-one], for which the IC50 in assay [1] is 7.34 µM; in assay [2], 1.14 nM.

Turning to `CCc1cc2c(cc1-c1cc(OC)c3ncnn3c1)[nH]c(=O)n2[C@@H]1CCCN(CC2CCC2)C1` [Example 181, (R)-1-(1-(cyclobutylmethyl)piperidin-3-yl)-6-ethyl-5-(8-methoxy-[1,2,4]triazolo[1,5-a]pyridin-6-yl)-1,3-dihydro-2H-benzo[d]imidazol-2-one], the IC50 in assay [1] stood at 6.77 µM; in assay [2], 0.81 nM.

For the compound `Cc1cc2c(cc1-c1cc(C)c3ncnn3c1)[nH]c(=O)n2[C@H]1CCCN(C)C1` [Example 11, (S)-6-methyl-5-(8-methyl-[1,2,4]triazolo[1,5-a]pyridin-6-yl)-1-(1-methylpiperidin-3-yl)-1,3-dihydro-2H-benzo[d]imidazol-2-one], the IC50 was found to be 9.55 µM in assay [1] and 276 nM in assay [2].

As to `COc1cc(-c2cc3[nH]c(=O)n([C@H]4CC[C@H](N(CC(C)C)CC(C)C)CC4)c3cc2C(C)C)cn2ncnc12` [Example 205, 1-((1r,4r)-4-(diisobutylamino)cyclohexyl)-6-isopropyl-5-(8-methoxy-[1,2,4]triazolo[1,5-a]pyridin-6-yl)-1,3-dihydro-2H-benzo[d]imidazol-2-one], the IC50 in assay [1] was determined as 11.6 µM; in assay [2], 4.76 nM.

In the case of `COc1cc(-c2cc3[nH]c(=O)n(C4CCN(CCS(C)(=O)=O)CC4)c3cc2C(C)C)cn2ncnc12` [Example 224, 6-isopropyl-5-(8-methoxy-[1,2,4]triazolo[1,5-a]pyridin-6-yl)-1-(1-(2-(methylsulfonyl)ethyl)piperidin-4-yl)-1,3-dihydro-2H-benzo[d]imidazol-2-one], the IC50 in assay [1] was over 50 µM; in assay [2], 82.4 nM.

For the compound `COc1cc(-c2cc3[nH]c(=O)n([C@H]4CC[C@@H](NCC5CCOCC5)CC4)c3cc2C(C)C)cn2ncnc12` [Example 196, 6-isopropyl-5-(8-methoxy-[1,2,4]triazolo[1,5-a]pyridin-6-yl)-1-((1s,4s)-4-(((tetrahydro-2H-pyran-4-yl)methyl)amino)cyclohexyl)-1,3-dihydro-2H-benzo[d]imidazol-2-one], the IC50 in assay [1] worked out at 8.96 µM; in assay [2] it was 4.1 nM.

As to `COc1cc(-c2cc3[nH]c(=O)n([C@H]4CC[C@H](NC5CCN(C(C)C)CC5)CC4)c3cc2C(C)C)cn2ncnc12` [Example 207, 6-isopropyl-1-((1r,4r)-4-((1-isopropylpiperidin-4-yl)amino)cyclohexyl)-5-(8-methoxy-[1,2,4]triazolo[1,5-a]pyridin-6-yl)-1,3-dihydro-2H-benzo[d]imidazol-2-one], the IC50 worked out at 4.63 µM in assay [1] and 23.9 nM in assay [2].

Turning to `COc1cc(-c2cc3[nH]c(=O)n(C4CCC(N5CC(OC)C5)CC4)c3cc2C(C)C)cn2ncnc12` (centres unmarked) [Example 238, 6-isopropyl-5-(8-methoxy-[1,2,4]triazolo[1,5-a]pyridin-6-yl)-1-(4-(3-methoxyazetidin-1-yl)cyclohexyl)-1,3-dihydro-2H-benzo[d]imidazol-2-one], the IC50 in assay [1] came to 8.09 µM; in assay [2], 0.81 nM.

Consider `COCCN1CCC[C@@H](n2c(=O)[nH]c3cc(-c4cc(OC)c5ncnn5c4)c(C(C)C)cc32)C1` [Example 226, (R)-6-isopropyl-5-(8-methoxy-[1,2,4]triazolo[1,5-a]pyridin-6-yl)-1-(1-(2-methoxyethyl)piperidin-3-yl)-1,3-dihydro-2H-benzo[d]imidazol-2-one], for which the results for the IC50 in assay [1] and in assay [2] were 14.2 µM and 1.13 nM, respectively.
